From ChEMBL document CHEMBL5370672, “Discovery of Orally Bioavailable Phthalazinone Analogues as an ENPP1 Inhibitor for STING-Mediated Cancer Immunotherapy” (J Med Chem, 2023)
The source made the active and inactive calls. The calls are words filed in the database; no cut-off is given here.

Assays:
[1] = MRT (0 to t) in BALB/c mouse at 20 mg/kg, po measured after 24 hrs by LC-MS/MS analysis; assay type: ADME, organism-based; conditions: in vivo
[2] = target: Stimulator of interferon genes protein (Homo sapiens) (UniProt Q86WV6); assay: (§1) Activation of STING-mediated immune response in STING knockout human THP-1 cells transfected with ISRE reporter assessed as increase in cGAMP-induced ISRE activation upto 50 uM preincubated with compound for 1 hrs followed by cGAMP addition and measured after 24 hrs by luciferase reporter gene assay; assay type: cell-based; conditions: time 25.0 hrs
Chain of Stimulator of interferon genes protein (Homo sapiens) (Q86WV6 whole entry): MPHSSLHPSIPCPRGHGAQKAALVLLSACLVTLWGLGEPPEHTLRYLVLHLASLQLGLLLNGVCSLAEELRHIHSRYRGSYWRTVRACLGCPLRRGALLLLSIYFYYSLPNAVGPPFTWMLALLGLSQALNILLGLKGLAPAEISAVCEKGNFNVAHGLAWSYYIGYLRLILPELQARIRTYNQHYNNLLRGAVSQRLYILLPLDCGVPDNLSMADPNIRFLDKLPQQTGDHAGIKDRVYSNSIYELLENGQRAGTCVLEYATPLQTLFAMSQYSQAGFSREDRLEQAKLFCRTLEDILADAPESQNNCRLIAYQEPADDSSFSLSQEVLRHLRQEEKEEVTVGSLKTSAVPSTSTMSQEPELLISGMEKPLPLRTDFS

[3] = Protein binding in human plasma assessed as unbound fraction by equilibrium dialysis based LC-MS/MS analysis; assay type: ADME, cell-free
[4] = Metabolic stability in human liver microsome assessed as intrinsic clearance by LC/MS analysis; assay type: ADME; conditions: liver microsomes, read-out: CLH
[5] = target: Stimulator of interferon genes protein (Homo sapiens) (UniProt Q86WV6); assay: Activation of STING-mediated immune response in human HCT-116 cells transfected with ISRE reporter assessed as increase in cGAMP-induced ISRE activation preincubated with compound for 1 hrs followed by cGAMP addition and measured after 48 hrs by luciferase reporter gene assay; assay type: cell-based; conditions: filed as activator, dose <= 200.0 µM, time 49.0 hrs
[6] = Half-life in BALB/c mouse at 20 mg/kg, po measured after 24 hrs by LC-MS/MS analysis; assay type: ADME, organism-based; conditions: in vivo
[7] = Toxicity in BALB/c mouse implanted with mouse CT26 cells assessed as effect on body weight at 200 mg/kg, po preadministered with compound for 2 weeks followed by reinoculation of CT26 cells and measured on day 19; assay type: organism-based; conditions: in vivo, 456 h, time 19 day
[8] = Metabolic stability in mouse liver microsome assessed as parent compound remaining measured after 30 mins by LC/MS analysis; assay type: ADME; conditions: liver microsomes, read-out: Stability
[9] = MRT (0 to infinity) in BALB/c mouse at 5 mg/kg, iv measured after 24 hrs by LC-MS/MS analysis; assay type: ADME, organism-based; conditions: in vivo
[10] = Metabolic stability in mouse liver microsome assessed as intrinsic clearance by LC/MS analysis; assay type: ADME; conditions: liver microsomes, read-out: CLH
[11] = Half-life in BALB/c mouse at 5 mg/kg, iv measured after 24 hrs by LC-MS/MS analysis; assay type: ADME, organism-based; conditions: in vivo
CT26 = assay: Antitumor activity against mouse CT26 cells implanted in BALB/c mouse assessed as tumor growth inhibition at 200 mg/kg, po administered for 2 weeks and measured on day 15 in the presence of anti-PD-L1 antibody relative to control; assay type: functional; conditions: CT26, 360 h, time 15 day, read-out: TGI
[12] = Protein binding in mouse plasma assessed as unbound fraction by equilibrium dialysis based LC-MS/MS analysis; assay type: ADME, cell-free
[13] = AUC (0 to t) in BALB/c mouse at 20 mg/kg, po measured after 24 hrs by LC-MS/MS analysis; assay type: ADME, organism-based; parameters: time 24 hrs, dose 20 mg/kg, route po; conditions: in vivo
[14] = target: Stimulator of interferon genes protein (Homo sapiens) (UniProt Q86WV6); assay: as §1, with “in” for “in STING knockout”, “by measuring fold change at 25 to” for “upto”; assay type: cell-based; conditions: filed as activator, dose 25-50 µM, time 25.0 hrs
[15] = target: T1, Ectonucleotide pyrophosphatase/phosphodiesterase family member 1 (Homo sapiens, UniProt P22413); assay: Inhibition of recombinant human ENPP1 using cGAMP as substrate assessed as inhibition of cGAMP hydrolysis preincubated for 5 to 10 mins followed by substrate addition and measured after 90 mins by AMP-Glo reagent based luminescence plate reader analysis
T1 sequence (P22413 whole entry): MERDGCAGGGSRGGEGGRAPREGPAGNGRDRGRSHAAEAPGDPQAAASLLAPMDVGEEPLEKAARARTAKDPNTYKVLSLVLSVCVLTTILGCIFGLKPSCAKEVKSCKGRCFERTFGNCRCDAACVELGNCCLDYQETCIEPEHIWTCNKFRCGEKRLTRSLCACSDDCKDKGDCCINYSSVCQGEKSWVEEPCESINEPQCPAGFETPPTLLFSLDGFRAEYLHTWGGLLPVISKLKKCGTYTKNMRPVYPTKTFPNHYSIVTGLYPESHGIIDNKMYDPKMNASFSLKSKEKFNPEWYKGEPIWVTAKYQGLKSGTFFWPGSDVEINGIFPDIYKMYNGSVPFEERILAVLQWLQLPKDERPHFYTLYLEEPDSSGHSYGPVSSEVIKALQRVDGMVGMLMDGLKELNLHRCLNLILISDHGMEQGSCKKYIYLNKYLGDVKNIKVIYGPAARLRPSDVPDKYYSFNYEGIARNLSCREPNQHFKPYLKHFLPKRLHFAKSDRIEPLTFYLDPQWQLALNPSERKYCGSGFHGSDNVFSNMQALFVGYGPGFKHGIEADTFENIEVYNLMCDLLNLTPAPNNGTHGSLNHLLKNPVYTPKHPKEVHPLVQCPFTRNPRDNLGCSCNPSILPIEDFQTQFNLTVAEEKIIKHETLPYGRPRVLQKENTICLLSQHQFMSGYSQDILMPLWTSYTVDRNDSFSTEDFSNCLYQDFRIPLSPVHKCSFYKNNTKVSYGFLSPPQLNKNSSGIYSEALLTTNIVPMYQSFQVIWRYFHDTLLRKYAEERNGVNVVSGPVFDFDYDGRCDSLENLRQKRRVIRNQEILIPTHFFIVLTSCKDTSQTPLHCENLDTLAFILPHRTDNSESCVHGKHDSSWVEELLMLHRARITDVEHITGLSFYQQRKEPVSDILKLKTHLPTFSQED

[16] = Metabolic stability in human liver microsome assessed as half-life by LC/MS analysis; assay type: ADME; conditions: liver microsomes
[17] = Toxicity in BALB/c mouse implanted with mouse CT26 cells assessed as effect on body weight at 200 mg/kg, po administered for 2 weeks and measured on day 15; assay type: organism-based; conditions: in vivo, 360 h, time 15 day
[18] = AUC (0 to infinity) in BALB/c mouse at 20 mg/kg, po measured after 24 hrs by LC-MS/MS analysis; assay type: ADME, organism-based; parameters: time 24 hrs, dose 20 mg/kg, route po; conditions: in vivo
[19] = Toxicity in BALB/c mouse implanted with mouse CT26 cells assessed as effect on body weight at 200 mg/kg, po preadministered with compound for 2 weeks followed by reinoculation of CT26 cells and measured on day 19 in the presence of anti-PD-L1 antibody; assay type: organism-based; conditions: in vivo, 456 h, time 19 day
[20] = Metabolic stability in human liver microsome assessed as parent compound remaining measured after 30 mins by LC/MS analysis; assay type: ADME; conditions: liver microsomes, read-out: Stability
[21] = Cmax in BALB/c mouse at 20 mg/kg, po measured after 24 hrs by LC-MS/MS analysis; assay type: ADME, organism-based; parameters: dose 20 mg/kg, time 24 hrs, route po; conditions: in vivo
Cytochrome P450 2C19 = Cytochrome P450 2C19 (Homo sapiens, UniProt P33261); assay: Inhibition of CYP2C19 in human liver microsomes; assay type: ADME, Microsome
Chain of Cytochrome P450 2C19 (P33261 whole entry): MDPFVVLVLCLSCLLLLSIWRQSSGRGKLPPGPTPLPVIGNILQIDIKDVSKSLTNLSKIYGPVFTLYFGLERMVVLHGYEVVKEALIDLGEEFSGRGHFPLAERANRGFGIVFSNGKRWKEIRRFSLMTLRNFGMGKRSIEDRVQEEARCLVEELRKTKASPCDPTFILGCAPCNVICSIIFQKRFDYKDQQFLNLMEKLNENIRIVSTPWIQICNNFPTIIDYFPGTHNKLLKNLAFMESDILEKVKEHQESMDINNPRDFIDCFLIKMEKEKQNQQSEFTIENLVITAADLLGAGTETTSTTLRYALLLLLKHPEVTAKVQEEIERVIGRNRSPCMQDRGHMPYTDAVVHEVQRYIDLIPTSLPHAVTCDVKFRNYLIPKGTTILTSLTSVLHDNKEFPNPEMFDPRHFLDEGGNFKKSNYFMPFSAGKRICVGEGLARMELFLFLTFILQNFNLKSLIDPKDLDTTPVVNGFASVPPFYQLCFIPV

[22] = AUC (0 to t) in BALB/c mouse at 5 mg/kg, iv measured after 24 hrs by LC-MS/MS analysis; assay type: ADME, organism-based; parameters: dose 5 mg/kg, time 24 hrs, route iv; conditions: in vivo
[23] = Cmax in BALB/c mouse at 5 mg/kg, iv measured after 24 hrs by LC-MS/MS analysis; assay type: ADME, organism-based; parameters: dose 5 mg/kg, time 24 hrs, route iv; conditions: in vivo
[24] = MRT (0 to infinity) in BALB/c mouse at 20 mg/kg, po measured after 24 hrs by LC-MS/MS analysis; assay type: ADME, organism-based; conditions: in vivo

## Cn1nc(Cc2ccc(NS(N)(=O)=O)cc2)c2ccccc2c1=O
[1]
  MRT last at 24 h: 3.75 h
[2]
  Activity: inactive
[3]
  fraction unbound: 0.18
[4]
  CLint scaled: < 14.5 mL/min/kg
[5]
  Activity: Dose-Dependent Effect
[6]
  half-life: 2.8 h
[7]
  Activity: Non-Toxic
[8]
  remaining at 0.5 h: 65%
[9]
  MRT inf: 3.21 h
[10]
  CLint scaled: 92.1 mL/min/kg
[11]
  half-life: 3.61 h
CT26
  inhibition in vivo at 200 mg/kg: 69%
[12]
  fraction unbound: 0.09
[13]
  AUC(0-t) at 24 h: 79400 ng·h/mL
[14]
  fold change (FC): < 30
[15]
  IC50: 68 nM
[16]
  half-life: > 2 h
[17]
  Activity: Non-Toxic
[18]
  AUC(0-inf): 79600 ng·h/mL
[19]
  Activity: Non-Toxic
[20]
  remaining at 0.5 h: 87%
[21]
  Cmax: 12700 ng/mL
Cytochrome P450 2C19
  IC50: > 10000 nM
[22]
  AUC(0-t) at 24 h: 30400 ng·h/mL
[23]
  Cmax: 9540 ng/mL
[24]
  MRT inf: 3.81 h
